Measured values as given in ChEMBL document CHEMBL1201862, “PubChem BioAssay data set” (2004).
Values belong to the compound of their own block, whether it stands above or below them. Active and inactive are the calls of the source.

Columns and labels:
Cytochrome P450 3A4 = Cytochrome P450 3A4 (Homo sapiens, UniProt P08684); details: Potency;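 also: confirmatory qHTS run detecting inhibitors and substrates of CYP3A4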
[1] = biological target: T1, RNA-binding protein pos-1 (Caenorhabditis elegans, UniProt G5EF15); test: inhibitors of POS-1/mex-3 RNA binding, dose response, biochemical, fluorescence polarization (AID 1964);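 also: purified POS-1 fused to maltose binding protein made in E. coli; potency of compounds blocking POS-1 binding to fluorescent RNA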
T1 sequence (G5EF15 whole entry): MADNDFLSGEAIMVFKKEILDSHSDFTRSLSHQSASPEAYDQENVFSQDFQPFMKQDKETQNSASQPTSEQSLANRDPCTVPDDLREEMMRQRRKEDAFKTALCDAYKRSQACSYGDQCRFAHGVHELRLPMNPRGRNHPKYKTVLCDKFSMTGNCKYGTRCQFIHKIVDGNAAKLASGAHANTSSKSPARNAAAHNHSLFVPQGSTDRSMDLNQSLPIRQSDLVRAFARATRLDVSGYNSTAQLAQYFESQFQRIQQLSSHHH

[2] = biological target: T2, Zinc finger protein mex-5 (Caenorhabditis elegans, UniProt Q9XUB2); test: MEX-5/TCR-2 RNA interaction inhibitors, dose response, biochemical, C. elegans, fluorescence polarization (AID 1960)
T2 sequence (Q9XUB2 whole entry): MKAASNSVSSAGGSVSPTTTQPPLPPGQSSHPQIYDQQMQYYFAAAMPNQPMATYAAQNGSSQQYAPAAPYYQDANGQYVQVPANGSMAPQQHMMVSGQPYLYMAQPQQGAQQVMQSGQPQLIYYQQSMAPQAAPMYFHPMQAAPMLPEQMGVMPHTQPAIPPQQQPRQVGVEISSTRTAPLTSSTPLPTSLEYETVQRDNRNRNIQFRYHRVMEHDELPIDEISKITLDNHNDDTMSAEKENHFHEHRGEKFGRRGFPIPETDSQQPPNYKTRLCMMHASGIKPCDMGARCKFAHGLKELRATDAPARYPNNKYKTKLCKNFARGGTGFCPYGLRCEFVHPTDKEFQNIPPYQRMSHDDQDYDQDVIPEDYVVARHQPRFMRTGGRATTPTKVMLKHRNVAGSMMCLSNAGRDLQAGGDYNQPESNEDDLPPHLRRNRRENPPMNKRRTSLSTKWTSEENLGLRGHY

BJ [3] = test: cytotoxicity toward BJ-TERT fibroblasts, dose response, cell-based, RAS-independent, luminescence (AID 1933); format: functional; details: Homo sapiens
BJ [4] = test: cytotoxicity toward BJ-TERT-LT-ST fibroblasts, dose response, cell-based, RAS-independent, luminescence (AID 1935); format: functional; details: Homo sapiens;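 also: BJ fibroblasts immortalized with TERT plus LT and ST oncogenes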
[5] = cytotoxicity in HEK-293T cells, dose response, cytotoxicity control for TCR NF-kB inhibitor project, luminescence, T-cell screen hits (AID 489026); format: functional, cell-based;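 also: cells exposed to compound about 14 hours before the viability readout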
[6] = cytotoxicity toward DRD oncogenic fibroblasts, dose response, cell-based, non-viral oncogenic, luminescence (AID 1934); format: functional; details: Homo sapiens
BJ [7] = test: cells; format: functional, cell-based; details: Homo sapiens
[8] = biological target: T3, Polyadenylate-binding protein 1 (Homo sapiens, UniProt P11940); test: PABP1 MLLE–PAM2 interaction inhibitors, dose response, miRNA deadenylation inhibitor project, biochemical, fluorescence polarization, Cy5-PAM2 peptide, secondary (AID 602260); format: functional; details: read-out: IC50_Mean
[9] = biological target: T3, Polyadenylate-binding protein 1; test: PABP1 MLLE–PAM2 binding inhibitor potency, dose response, biochemical, fluorescence polarization, FITC-PAM2 peptide (AID 602259); format: functional; details: read-out: IC50_Mean
[10] = cytotoxicity toward NIH3T3 fibroblasts, dose response, counter-screen, cell-based, ATP luminescence, mouse fibroblasts (AID 2010); format: functional;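 also: cells exposed to compound for about 90 hours before reading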
[11] = biological target: T4, Corticotropin-releasing factor receptor 2/Corticotropin-releasing factor-binding protein (Homo sapiens, UniProt P24387+Q13324); test: activators of CRF receptor 2 with binding protein – uHTS hits, confirmation (AID 602473); format: functional; details: read-out: EC50_Mean
T4 sequence (Q13324 whole entry): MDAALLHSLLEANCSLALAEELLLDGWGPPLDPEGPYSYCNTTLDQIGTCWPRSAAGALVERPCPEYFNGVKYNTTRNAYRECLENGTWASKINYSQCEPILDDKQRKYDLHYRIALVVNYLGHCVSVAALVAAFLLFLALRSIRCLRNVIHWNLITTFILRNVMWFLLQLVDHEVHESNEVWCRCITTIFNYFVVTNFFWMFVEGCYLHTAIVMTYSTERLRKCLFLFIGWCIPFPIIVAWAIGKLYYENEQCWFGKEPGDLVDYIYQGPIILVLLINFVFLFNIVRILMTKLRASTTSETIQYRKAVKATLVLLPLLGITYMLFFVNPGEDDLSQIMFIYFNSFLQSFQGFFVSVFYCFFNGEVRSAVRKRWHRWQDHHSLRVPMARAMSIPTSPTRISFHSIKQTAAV
T4 sequence (P24387 whole entry): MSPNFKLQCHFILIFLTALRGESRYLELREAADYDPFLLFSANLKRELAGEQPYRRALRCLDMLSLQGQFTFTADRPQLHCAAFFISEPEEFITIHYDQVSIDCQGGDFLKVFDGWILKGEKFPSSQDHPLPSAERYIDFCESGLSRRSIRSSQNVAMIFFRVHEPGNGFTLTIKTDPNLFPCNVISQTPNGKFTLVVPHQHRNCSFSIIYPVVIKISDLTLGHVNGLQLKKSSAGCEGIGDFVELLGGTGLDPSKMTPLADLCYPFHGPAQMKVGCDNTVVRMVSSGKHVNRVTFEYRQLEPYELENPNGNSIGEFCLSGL

[12] = inhibitors of intracellular T. cruzi replication, confirmation, NIH3T3 host cells, beta-gal luminescence (AID 2044); format: functional, cell-based;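 also: intracellular parasites grown in NIH/3T3 mouse fibroblasts as host cells; luminescent beta-galactosidase reporter signal from transgenic T. cruzi replicating inside host cells; inhibitors lower the luminescence signal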
Cytochrome P450 2C9 = Cytochrome P450 2C9 (Homo sapiens, UniProt P11712)
Cytochrome P450 2C19 = Cytochrome P450 2C19 (Homo sapiens, UniProt P33261); test: Cytochrome panel assay with activity outcomes. Panel member name: p450-cyp2c19 Compounds with AC50 equal or less than 10 uM are considered active; format: functional; details: read-out: AC50
[13] = biological target: T5, High affinity choline transporter 1 (Homo sapiens, UniProt Q9GZV3); test: CHT inhibitors, dose response, cell-based, 5-point CRC, membrane potential dye (AID 504840); format: functional
T5 sequence (Q9GZV3 whole entry): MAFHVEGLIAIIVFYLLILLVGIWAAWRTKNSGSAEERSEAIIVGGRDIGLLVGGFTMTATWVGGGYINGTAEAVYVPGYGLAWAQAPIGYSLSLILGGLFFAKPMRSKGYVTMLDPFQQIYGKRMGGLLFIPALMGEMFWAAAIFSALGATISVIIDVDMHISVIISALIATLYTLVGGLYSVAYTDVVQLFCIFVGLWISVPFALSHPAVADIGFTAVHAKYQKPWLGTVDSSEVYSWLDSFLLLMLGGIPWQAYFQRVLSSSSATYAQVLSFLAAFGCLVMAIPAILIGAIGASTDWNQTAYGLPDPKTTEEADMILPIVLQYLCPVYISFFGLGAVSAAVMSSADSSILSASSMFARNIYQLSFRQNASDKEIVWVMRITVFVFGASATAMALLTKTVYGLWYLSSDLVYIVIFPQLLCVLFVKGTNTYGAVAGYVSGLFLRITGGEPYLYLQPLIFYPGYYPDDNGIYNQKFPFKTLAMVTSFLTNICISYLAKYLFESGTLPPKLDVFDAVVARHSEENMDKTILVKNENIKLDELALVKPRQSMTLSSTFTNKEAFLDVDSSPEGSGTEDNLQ

[14] = HepG2 cell cytotoxicity, dose response, cytotoxicity control for Shn3 inhibitor project, CellTiter-Glo, cherry-picked (AID 624134); format: functional, cell-based
[15] = Shn3 3'UTR reporter inhibitors, dose response, cell-based, Clone20 osteoblasts, firefly luciferase, cherry-picked (AID 624132); format: functional;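 also: firefly luciferase luminescence from reporter carrying the Shn3 3'UTR in osteoblasts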
[16] = control 3'UTR Renilla luciferase suppression, dose response, counter-screen for Shn3 inhibitor project, cell-based, Clone20-Shn3RL, cherry-picked (AID 624133); format: functional
[17] = biological target: Heat shock protein HSP 90-alpha (Homo sapiens, UniProt P07900); format: functional, organism-based

Chain of Cytochrome P450 3A4 (P08684 whole entry, the tested form may be a part): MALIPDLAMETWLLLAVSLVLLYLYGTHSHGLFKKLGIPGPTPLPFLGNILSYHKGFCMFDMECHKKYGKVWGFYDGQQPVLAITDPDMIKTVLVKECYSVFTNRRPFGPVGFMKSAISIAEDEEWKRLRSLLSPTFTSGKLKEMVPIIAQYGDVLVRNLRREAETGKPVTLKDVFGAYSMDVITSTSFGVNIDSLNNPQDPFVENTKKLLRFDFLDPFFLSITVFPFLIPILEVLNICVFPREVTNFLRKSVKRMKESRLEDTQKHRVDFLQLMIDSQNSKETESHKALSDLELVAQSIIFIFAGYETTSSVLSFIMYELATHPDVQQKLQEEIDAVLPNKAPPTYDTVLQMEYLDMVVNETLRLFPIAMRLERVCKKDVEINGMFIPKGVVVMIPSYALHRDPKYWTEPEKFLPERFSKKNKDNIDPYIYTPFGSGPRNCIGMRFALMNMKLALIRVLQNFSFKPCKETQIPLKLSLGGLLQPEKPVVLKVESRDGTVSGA
T3 sequence (P11940 whole entry): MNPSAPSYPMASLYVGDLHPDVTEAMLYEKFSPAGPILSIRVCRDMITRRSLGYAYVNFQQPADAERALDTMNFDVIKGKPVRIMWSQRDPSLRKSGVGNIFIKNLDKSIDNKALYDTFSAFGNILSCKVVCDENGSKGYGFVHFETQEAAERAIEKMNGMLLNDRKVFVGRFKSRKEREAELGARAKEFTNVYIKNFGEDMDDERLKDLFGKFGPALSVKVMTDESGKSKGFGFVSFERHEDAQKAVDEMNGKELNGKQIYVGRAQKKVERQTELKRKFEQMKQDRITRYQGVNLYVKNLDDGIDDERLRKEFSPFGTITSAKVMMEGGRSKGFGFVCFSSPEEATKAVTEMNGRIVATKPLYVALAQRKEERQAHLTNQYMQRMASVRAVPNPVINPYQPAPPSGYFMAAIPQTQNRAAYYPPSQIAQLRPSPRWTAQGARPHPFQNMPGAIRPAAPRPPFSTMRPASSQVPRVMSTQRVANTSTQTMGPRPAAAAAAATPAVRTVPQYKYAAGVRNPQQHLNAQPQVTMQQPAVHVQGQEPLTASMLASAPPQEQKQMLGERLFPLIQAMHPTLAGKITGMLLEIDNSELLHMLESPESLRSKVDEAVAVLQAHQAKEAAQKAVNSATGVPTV
Chain of Cytochrome P450 2C9 (P11712 whole entry): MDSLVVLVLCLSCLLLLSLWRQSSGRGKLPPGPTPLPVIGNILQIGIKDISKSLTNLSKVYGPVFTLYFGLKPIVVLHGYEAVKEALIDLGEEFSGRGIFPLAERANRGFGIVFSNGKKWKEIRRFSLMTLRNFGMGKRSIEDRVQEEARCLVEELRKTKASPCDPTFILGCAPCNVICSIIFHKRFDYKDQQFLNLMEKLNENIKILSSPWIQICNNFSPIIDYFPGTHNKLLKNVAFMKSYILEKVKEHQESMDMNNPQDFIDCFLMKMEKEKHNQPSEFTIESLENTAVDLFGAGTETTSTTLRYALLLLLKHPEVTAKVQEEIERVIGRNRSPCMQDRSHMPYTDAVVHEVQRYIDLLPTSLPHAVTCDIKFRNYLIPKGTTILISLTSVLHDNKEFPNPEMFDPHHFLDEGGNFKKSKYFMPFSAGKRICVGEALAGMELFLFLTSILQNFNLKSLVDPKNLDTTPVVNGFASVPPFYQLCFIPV
Chain of Cytochrome P450 2C19 (P33261 whole entry): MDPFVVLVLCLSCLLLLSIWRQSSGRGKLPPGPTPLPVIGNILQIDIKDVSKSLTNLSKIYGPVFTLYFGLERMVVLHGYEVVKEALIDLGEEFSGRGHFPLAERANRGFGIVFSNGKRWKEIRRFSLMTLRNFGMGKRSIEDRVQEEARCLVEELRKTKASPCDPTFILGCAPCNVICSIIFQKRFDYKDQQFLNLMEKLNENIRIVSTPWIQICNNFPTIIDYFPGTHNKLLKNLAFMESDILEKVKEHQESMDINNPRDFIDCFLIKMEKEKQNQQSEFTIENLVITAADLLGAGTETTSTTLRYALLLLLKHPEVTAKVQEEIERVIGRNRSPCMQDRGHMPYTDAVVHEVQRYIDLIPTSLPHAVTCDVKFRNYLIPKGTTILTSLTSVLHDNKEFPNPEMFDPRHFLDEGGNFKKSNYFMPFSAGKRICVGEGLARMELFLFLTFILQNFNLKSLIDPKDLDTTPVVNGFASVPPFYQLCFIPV

SMILES: COc1ccccc1NC(=O)Cn1nnc(C(=O)NCc2cccs2)c1N
- EC50 (BJ [3]): 1.96 µM (active)
- EC50 (BJ [4]): 1.41 µM (active)
- IC50 [5]: > 80 µM (inactive)
- EC50 [6]: 1.18 µM (active)
- EC50 (BJ [7]): 19.3 µM (active)

SMILES: COc1ccc(/C=C2/C(=O)OCc3cc(OC)c(OC)cc32)cc1
- IC50 [5]: 78.5 µM (inactive)

SMILES: CN1Cc2c(N3CCOCC3)nc(SCc3ccccc3)c(C#N)c2CC1(C)C
- IC50 [8]: > 66 µM (inactive)
- IC50 [9]: > 66 µM (inactive)
- EC50 [10]: > 60 µM (not active)
- EC50 [11]: > 53 µM (inactive)
- EC50 [12]: 0.62 µM (active)

SMILES: CCC(=S)/C=C1\Sc2ccc3ccccc3c2N1CCCS(=O)(=O)O
- AC50 (Cytochrome P450 2C9): 20 µM (inconclusive)
- EC50 [1]: > 300 µM (not active)
- EC50 [2]: > 300 µM (not active)
- AC50 (Cytochrome P450 2C19): 28.2 µM (inconclusive)

SMILES: O=C(Nc1nc(-c2ccccc2)cs1)c1ccc(N2CCOCC2)c([N+](=O)[O-])c1
- IC50 [5]: 10.2 µM (active)
- AC50 [14]: 1.59 µM (active)
- EC50 [10]: > 60 µM (inconclusive)
- AC50 [15]: 3.75 µM (active)
- AC50 [16]: 3.52 µM (active)
- EC50 [12]: 0.895 µM (active)

SMILES: O=C(c1ccc(C[S+]([O-])c2ccccc2Cl)o1)N1CCN(c2ccccn2)CC1 (stereo not given)
- IC50 [5]: > 80 µM (inactive)

SMILES: O=C(COC(=O)CCc1c[nH]c(=O)[nH]1)Nc1ccccc1Cl
- EC50 [1]: > 300 µM (not active)
- EC50 [2]: 53.5 µM (active)

SMILES: Cc1ccc(NC(=O)CNC(=O)c2cccc(Cl)c2)nc1
- IC50 [13]: 13.1 µM (active)

The remaining lines, values ahead:

- AC50 (Cytochrome P450 3A4): 1 µM (inconclusive)
SMILES: C=CCOC(=O)C(C(C)=O)C(NC(=O)OC)c1ccc2ccccc2c1 (stereo not given)

- AC50 (Cytochrome P450 3A4): 15.8 µM (inconclusive)
SMILES: Cn1c(N)c(C(=O)COC(=O)c2ccnc3ccccc23)c(=O)n(C)c1=O

- EC50 [1]: > 300 µM (not active)
- EC50 [2]: > 300 µM (not active)
SMILES: NC(=O)c1snnc1-c1ccccc1

- IC50 [13]: 5.01 µM (active)
SMILES: CCCc1ccc(OCc2ccc(C(=O)NCc3cccnc3)o2)c(OC)c1

- AC50 (Cytochrome P450 3A4): 31.6 µM (inconclusive)
SMILES: Nc1cccc(N)c1

- IC50 [13]: 2 µM (active)
SMILES: Cc1cc(Cl)ccc1OCCCC(=O)N1CCN(C(=O)c2ccco2)CC1

- AC50 (Cytochrome P450 3A4): 39.8 µM (inconclusive)
SMILES: CC(C)c1c(O)ccc2c1CCC1[C@@](C)(CO)CCC[C@@]21C (stereo not given in full)

- AC50 [17]: 1.04 µM (active)
SMILES: O=C(OCC(=O)C12CC3CC(CC(C3)C1)C2)c1ccc(O)cc1

- IC50 [13]: 15.8 µM (active)
SMILES: CC(C)c1ccc(/C=C(\NC(=O)c2ccccc2)C(=O)NCCCn2ccnc2)cc1
